Like-named read-outs stand apart in the source and are kept apart here.
Target: T1, recombinant human liver glycogen phosphorylase (Homo sapiens, UniProt P06737)
T1 construct: made in house; host or cells: Sf9 insect cells (crude homogenate, diluted, used as the enzyme solution)
T1 sequence (P06737 1-847): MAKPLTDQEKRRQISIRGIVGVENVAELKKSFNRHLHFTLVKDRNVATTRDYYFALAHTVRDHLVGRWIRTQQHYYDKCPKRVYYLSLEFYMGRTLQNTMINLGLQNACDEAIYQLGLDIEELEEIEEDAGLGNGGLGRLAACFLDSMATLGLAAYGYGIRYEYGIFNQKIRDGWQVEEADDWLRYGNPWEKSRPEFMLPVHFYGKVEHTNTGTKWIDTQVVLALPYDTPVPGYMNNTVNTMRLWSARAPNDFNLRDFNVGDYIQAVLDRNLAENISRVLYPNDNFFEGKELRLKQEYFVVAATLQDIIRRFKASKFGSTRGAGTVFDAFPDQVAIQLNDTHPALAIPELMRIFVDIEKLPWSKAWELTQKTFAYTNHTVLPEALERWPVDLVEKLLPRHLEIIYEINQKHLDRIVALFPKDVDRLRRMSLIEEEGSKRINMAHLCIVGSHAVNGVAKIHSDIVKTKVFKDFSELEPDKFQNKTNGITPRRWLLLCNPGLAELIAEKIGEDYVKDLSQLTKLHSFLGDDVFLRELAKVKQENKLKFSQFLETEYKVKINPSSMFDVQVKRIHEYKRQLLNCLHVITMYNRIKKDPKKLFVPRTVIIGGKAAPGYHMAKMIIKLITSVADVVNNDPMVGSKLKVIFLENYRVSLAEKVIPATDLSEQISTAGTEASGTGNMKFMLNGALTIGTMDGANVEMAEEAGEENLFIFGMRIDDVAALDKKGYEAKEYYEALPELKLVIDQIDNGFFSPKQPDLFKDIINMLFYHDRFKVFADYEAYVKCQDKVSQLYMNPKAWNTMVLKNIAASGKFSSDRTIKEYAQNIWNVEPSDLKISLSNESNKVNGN
Experiment: Measuring liver glycogen phosphorylase activity (forward reaction system, NADPH absorbance at 340 nm)
Assay type: biochemical
Conditions: for inhibition at 0.64 µM: compound concentration 640 nmol (in parentheses)
Procedure: [Pharmacological Test] 1. Exemplary Test (1) Method for Measuring Liver Glycogen Phosphorylase Activity
The measurement of glycogen phosphorylase activity was carried out by a method using the forward reaction system.
The measurement of glycogen phosphorylase activity using the forward reaction system was carried out as follows. Glucose-1-phosphate prepared from glycogen by glycogen phosphorylase was converted into glucono-δ-lactone 6-phosphate through transphosphorylation and dehydrogenation using phosphoglucomutase and glucose-6-phosphate dehydrogenase (G6PDH). NADPH generated from NADP during the dehydrogenation by G6PDH was detected.
A homogenate of the Sf9 cells which expressed exogenously recombinant human liver glycogen phosphorylase was diluted with 100 mmol/LBES buffer solution (pH 6.8, containing 2 mmol/L EDTA) and the dilution was used as the enzyme solution of human liver glycogen phosphorylase. As the substrate, a phosphate buffer (containing 16 mmol/L KH2PO4, 24 mmol/L Na2HPO4) was used. A mixture of 8 U/mL phosphoglucomutase and 60 U/mL G6PDH was prepared in BES buffer solution. Buffer solution (containing 1.4 mmol/L NADP, 30 mmol/L MgCl2, 8 μmol/L glucose-1,6-diphosphate, 8 mg/mL glycogen, 40 mmol/LBES, 0.8 mmol/L EDTA) for reaction and a glucose solution (containing 75 mmol/L glucose, 100 mmol/LBES, 2 mmol/L EDTA) were prepared individually. The test compound was dissolved in 1% DMSO solution.
The enzymatic reaction was begun by adding 20 μL of the recombinant human liver glycogen phosphorylase solution and 20 μL of the mixture of phosphoglucomutase and G6PDH to the mixture of 20 μL of the glucose solution, 20 μL of the substrate, 100 μL of the buffer solution for reaction and 20 μL of the test compound solution. As control, 1% DMSO solution was added instead of the test compound. The mixture without the substrate was used as blank. The absorbance at 340 nm was measured immediately after the reaction started. The absorbance at 340 nm was measured again after reacting at room temperature for 75 minutes. The enzymatic activity is a value obtained by subtracting the blank variation in absorbance over 75 minutes from the variation in absorbance over 75 minutes.
The inhibition rate (%) of the test compound was calculated by the expression “(1-enzymatic activity of test compound/enzymatic activity of control)×100.”
A linear equation was determined from the two concentration points with the 50% inhibition rate therebetween, and the IC50 value was calculated from the concentration at the intersection of the line with the 50% inhibition rate.
“IC50” in the tables indicates the above-described enzyme inhibitory activity with respect to liver glycogen phosphorylase, and the activity to inhibit liver glycogen phosphorylase was represented as ++ when the IC50 value (nmol/L) was less than 100 nmol/L, as + when the IC50 value was between 100 nmol/L and 300 nmol/L. When IC50 is 300 nmol/L or more, an inhibition rate (%) at a certain concentration of the compound (I) of the present invention is shown in Tables. For example, when the inhibition rate is 20% at a concentration of 300 nmol, the rate is described as 20% (300).

[1] = enzyme inhibitory activity with respect to liver glycogen phosphorylase, class symbols
[2] = compound concentration 100 nmol (in parentheses), read-out: inhibition rate (%) at a certain concentration
[3] = human liver glycogen phosphorylase, class symbol
[4] = read-out: inhibition rate (%) at a certain concentration

| IC50 [1] [nM] | SMILES | further results |
| --- | --- | --- |
| < 100 | CN(C)C1CCN(c2ccc(CNC(=O)c3cc(NC(=O)c4cc(F)c(F)cc4Cl)[nH]n3)cn2)CC1 [Example 5-40] |  |
| 100 to 300 | O=C(Nc1cc(C(=O)N2CCCc3ccccc32)n[nH]1)c1cc(F)c(F)cc1Cl [Example 3-15] |  |
| 100 to 300 | Cc1ccc(F)cc1C(=O)Nc1cc(C(=O)NCc2ccccc2)n[nH]1 [Example 4-12] |  |
| 100 to 300 | CC(C)N(C(=O)c1cc(NC(=O)c2cc(F)c(F)cc2Cl)[nH]n1)c1ccccc1 [Example 4-3] |  |

The remaining lines, values behind:

| SMILES | IC50 [1] [nM] | further results |
| --- | --- | --- |
| O=C(NCCO)c1ccc(CNC(=O)c2cc(NC(=O)c3cc(F)c(F)cc3Cl)[nH]n2)cc1 [Example 1-48] | < 100 |  |
| CCN(CC)C(=O)c1ccc(CNC(=O)c2cc(NC(=O)c3cc(F)c(F)cc3Cl)[nH]n2)cc1 [Example 1-118] | < 100 |  |
| O=C(NCCc1ccccn1)c1cc(NC(=O)c2cc(F)c(F)cc2Cl)[nH]n1 [Example 1-139] |  | inhibition at 0.1 µM [2]: 22.9% |
| COCCN(C)C(=O)c1cc(NC(=O)c2cc(F)c(F)cc2Cl)[nH]n1 [Example 1-6] | 100 to 300 |  |
| N=C(Nc1cccc(CNC(=O)c2cc(NC(=O)c3cc(F)c(F)cc3Cl)[nH]n2)c1)c1ccccc1F [Example 6-34] |  | IC50 [3]: < 100 nM |
| Nc1ccccc1CNC(=O)c1cc(NC(=O)c2cc(F)c(F)cc2Cl)[nH]n1 [Example 1-65] | < 100 |  |
| CN(C)C(=O)Nc1cccc(CNC(=O)c2cc(NC(=O)c3cc(F)c(F)cc3Cl)[nH]n2)c1 [Example 6-36] |  | IC50 [3]: < 100 nM |
| O=C(NCc1cc(Br)c(Br)s1)c1cc(NC(=O)c2cc(F)c(F)cc2Cl)[nH]n1 [Example 1-155] | < 100 |  |
| C[C@H](NC(=O)c1cc(NC(=O)c2cc(F)c(F)cc2Cl)[nH]n1)c1ccccc1 [Example 2-21] |  | inhibition at 0.1 µM [2]: 5.7% |
| Cc1nc(-c2ccccc2)oc1CNC(=O)c1cc(NC(=O)c2cc(F)c(F)cc2Cl)[nH]n1 [Example 1-165] | < 100 |  |
| O=C(N[C@@H](CO)c1ccccc1)c1cc(NC(=O)c2cc(F)c(F)cc2Cl)[nH]n1 [Example 3-22] |  | inhibition at 0.64 µM [4]: 50% |
| O=C(Nc1cccc2ncccc12)c1cc(NC(=O)c2cc(F)c(F)cc2Cl)[nH]n1 [Example 1-145] |  | inhibition at 0.1 µM [2]: 12.8% |
| O=C(Nc1cccc2cccnc12)c1cc(NC(=O)c2cc(F)c(F)cc2Cl)[nH]n1 [Example 5-37] |  | inhibition rate (%) at a certain concentration (compound concentration 100 nmol (in parentheses)): 22.3% (100) |
| O=C(NCc1nccs1)c1cc(NC(=O)c2cc(F)c(F)cc2Cl)[nH]n1 [Example 1-51] | < 100 |  |
| CN(C(=O)c1cc(NC(=O)c2cc(F)c(N=[N+]=[N-])cc2Cl)[nH]n1)c1ccc(C#N)cc1 [Example 6-9] |  | inhibition at 0.3 µM (figure in brackets (300), read-out: IC50 column: % value printed with (300)): 5.5% |
| CCOC1(C)Nc2ccccc2CN1C(=O)c1cc(NC(=O)c2cc(F)c(F)cc2Cl)[nH]n1 (stereo not drawn) [Example 6-47] |  | inhibition at 0.1 µM (figure in brackets (100), read-out: IC50: % value given with (100)): 41.1% |
| O=C(Nc1cnccn1)c1cc(NC(=O)c2cc(F)c(F)cc2Cl)[nH]n1 [Example 1-144] |  | inhibition at 0.1 µM [2]: 5% |
| O=C(Nc1cc(C(=O)N2C=Nc3ccccc3C2)n[nH]1)c1cc(F)c(F)cc1Cl [Example 6-44] |  | IC50 [3]: < 100 nM |
| O=C(Nc1ccccc1)c1cc(NC(=O)c2cc(F)c(F)cc2Cl)[nH]n1 [Example 3-3] |  | inhibition at 0.64 µM [4]: 50% |
| CC(=O)OCCN(CCO)CCNC(=O)c1ccc(CNC(=O)c2cc(NC(=O)c3cc(F)c(F)cc3Cl)[nH]n2)cc1 [Example 1-49] | < 100 |  |
| O=C(NCc1ccc(N2CCSCC2)nc1)c1cc(NC(=O)c2cc(F)c(F)cc2Cl)[nH]n1 [Example 1-153] | < 100 |  |
| O=C(NCc1ccccc1F)c1cc(NC(=O)c2cc(F)c(F)cc2Cl)[nH]n1 [Example 1-8] | < 100 |  |
| CN(CCc1ccccc1)C(=O)c1cc(NC(=O)c2cc(F)c(F)cc2Cl)[nH]n1 [Example 3-10] |  | inhibition at 1 µM (compound concentration 1000 nmol (in parentheses), read-out: inhibition rate (%) at a certain concentration): 23.2% |
| CC(C)(C)c1ccc(CNC(=O)c2cc(NC(=O)c3cc(F)c(F)cc3Cl)[nH]n2)cc1 [Example 1-30] | < 100 |  |
| O=C(Nc1cc(C(=O)N2C=NC3CCCCC3C2)n[nH]1)c1cc(F)c(F)cc1Cl (stereo not drawn) [Example 6-43] |  | IC50 [3]: < 100 nM |
| CC(=N)Nc1ccccc1CNC(=O)c1cc(NC(=O)c2cc(F)c(F)cc2Cl)[nH]n1 [Example 6-30] |  | IC50 [3]: < 100 nM |
